Converted amounts (≈) assume the structure as drawn. Where two headings read alike, the source gives them in different places.
Key:
Type in all cases: cell-based
[1] = system: Providencia rettgeri IFO 3850; assay: Antibacterial test, agar plate dilution method (MIC), standard strains; settings: Providencia rettgeri, IFO3850, 18 h, MH agar, 37°C, read-out: MIC
Procedure: (§1) The antibacterial activities were tested by an agar plate dilution method in accordance with the standard method of The Japanese Chemotherapy Society [Chemotherapy, Vol. 29, 76-79 (1981)].
(§2) A Mueller-Hinton (MH) agar liquid medium of a test microorganism was cultured overnight at 37°C and the resultant culture medium was diluted with a buffered saline gelatin (BSG) solution to contain approximately 10⁶ cells of the test microorganisms per milliliter, and then the diluted solution was inoculated with a microplanter at the rate of approximately 5 microliters on a MH agar medium containing a test compound. This medium was then incubated at 37°C for 18 hours. The minimum inhibitory concentration (MIC) is determined as a minimum concentration in which no test microorganism could grow. It is noted here that the test organisms used were all standard strains.

[2] = system: Salmonella enteritidis G14; assay: as above; settings: Salmonella enterica, MH agar, 37°C
Procedure: as §1, §2

[3] = system: Morganella morganii IFO3848; assay: as above; settings: Morganella morganii, IFO3848, 18 h, MH agar, 37°C, read-out: MIC
Procedure: as §1, §2

[4] = system: Salmonella paratyphi 1015; assay: as above; settings: Salmonella enterica, MH agar, 37°C, 18 hours, read-out: MIC
Procedure: as §1, §2

[5] = system: Pseudomanas aeruginosa NCTC 10940; assay: as above; settings: 18 h, MH agar, 37°C, read-out: MIC
Procedure: as §1, §2

[6] = system: Serratia marcescens IAM1184; assay: as above; settings: MH agar, 37°C
Procedure: as §1, §2

[7] = system: Proteus vulgaris HX-19; assay: as above; settings: Proteus vulgaris, HX19, 18 h
Procedure: as §1, §2

[8] = system: Salmonella typhi 901; assay: as above; settings: Salmonella enterica, TYPHI, 18 h, MH agar, 37°C
Procedure: as §1, §2

[9] = system: Proteus mirabilis IFO3849; assay: as above; settings: Proteus mirabilis, IFO3849, 18 h
Procedure: as §1, §2

[10] = system: Salmonella schottmuelleri 8006; assay: as above; settings: MH agar, 37°C, 18 hours, read-out: MIC
Procedure: as §1, §2

[11] = system: Pseudomonas aeruginosa IFO 3445; assay: as above; settings: IFO3445, MH agar, 37°C, 18 hours, read-out: MIC
Procedure: as §1, §2

[12] = system: Proteus vulgaris OX-19; assay: as above; settings: Proteus vulgaris, OX19, 18 h
Procedure: as §1, §2

[13] = system: Providencia rettgeri GN 4430; assay: Antibacterial activity against clinically isolated β-lactamase (cephalosporinase) producing strains (MIC); settings: GN4430, cephalosporinase producing strain, SDA, 18 to 20 hours, read-out: MIC
Procedure: (§3) The antibacterial activities against clinically isolated β-lactamase producing strains were tested by the agar plate dilution method in accordance with the standard method of The Japanese Chemotherapy Society [Chemotherapy, Vol. 29, 76-79 (1981)]. A solution of a cephalosporinase producing strain stored by Episome Research Institute, prepared by incubating the strain in a sensitivity test broth (STB; product of Nissui K. K.) for 18 hours, was diluted with a fresh STB solution so that the solution contained 10⁶ cells per milliliter. The diluted solution was then inoculated as spots in a microplanter on a sensitivity disk agar-N (SDA; product of Nissui K. K.) containing a test compound. The disk agar was then incubated for 18 to 20 hours. The minimum inhibitory concentration was determined as a minimum concentration in which the test microorganism no longer grew after a 18 to 20-hour incubation.

[14] = system: Pseudomonas cepacia GN 11164; assay: as above; settings: Burkholderia cepacia, GN11164, cephalosporinase producing strain, SDA, 18 to 20 hours, read-out: MIC
Procedure: as §3

[15] = system: Proteus morganii GN 5407; assay: as above; settings: Morganella morganii, GN5407, cephalosporinase producing strain, SDA, 18 to 20 hours, read-out: MIC
Procedure: as §3

[16] = system: Proteus vulgaris GN 7919; assay: as above; settings: cephalosporinase producing strain, SDA, 18 to 20 hours
Procedure: as §3

[17] = system: Enterobacter cloacae GN 7467; assay: as above; settings: GN7467; Enterobacter cloacae GN 7467; cephalosporinase producing strain, SDA, 18 to 20 hours; read-out: MIC
Procedure: as §3

[18] = system: Pseudomonas aeruginosa GN 918; assay: as above; settings: GN918; Pseudomonas aeruginosa GN 918; cephalosporinase producing strain, SDA, 18 to 20 hours; read-out: MIC
Procedure: as §3

[19] = system: Pseudomonas aeruginosa GN 10362; assay: as above; settings: GN10362, cephalosporinase producing strain, SDA, 18 to 20 hours, read-out: MIC
Procedure: as §3

[20] = system: Proteus morganii GN 5307; assay: as above; settings: cephalosporinase producing strain, SDA, 18 to 20 hours
Procedure: as §3

[21] = system: Serratia marcescens L-82; assay: as above; settings: L82, cephalosporinase producing strain, SDA, 18 to 20 hours, read-out: MIC
Procedure: as §3

[22] = system: Providencia rettgeri GN 5284; assay: as above; settings: GN5284, cephalosporinase producing strain, SDA, 18 to 20 hours, read-out: MIC
Procedure: as §3

[23] = system: Serratia marcescens GN 10857; assay: as above; settings: Serratia marcescens, GN10857, Serratia marcescens GN 10857; cephalosporinase producing strain, SDA, 18 to 20 hours; read-out: MIC
Procedure: as §3

[24] = system: Proteus morganii GN 5375; assay: as above; settings: Morganella morganii, GN5375, cephalosporinase producing strain, SDA, 18 to 20 hours, read-out: MIC
Procedure: as §3

[25] = system: Enterobacter cloacae GN 7471; assay: as above; settings: GN7471, cephalosporinase producing strain, SDA, 18 to 20 hours, read-out: MIC
Procedure: as §3

[26] = system: Enterobacter cloacae GN 5797; assay: as above; settings: GN5797, cephalosporinase producing strain, SDA, 18 to 20 hours, read-out: MIC
Procedure: as §3

SMILES | MIC [1] [µg/mL] | MIC [3] [µg/mL] | MIC [4] [µg/mL] | MIC [5] [µg/mL] | MIC [7] [µg/mL] | MIC [8] [µg/mL] | MIC [10] [µg/mL] | MIC [11] [µg/mL] | MIC [12] [µg/mL] | MIC [13] [µg/mL] | MIC [14] [µg/mL] | MIC [15] [µg/mL] | MIC [17] [µg/mL] | MIC [18] [µg/mL] | MIC [19] [µg/mL] | MIC [21] [µg/mL] | MIC [22] [µg/mL] | MIC [23] [µg/mL] | MIC [24] [µg/mL] | MIC [25] [µg/mL] | also measured
C[C@@H](O)[C@H]1C(=O)N2C(C(=O)O)=C(SCCN=CN)C[C@H]12 [Imipenem, imipenem] | 0.78 (≈ 2.61 µM) | 0.39 (≈ 1.3 µM) | 1.56 (≈ 5.21 µM) | 0.78 (≈ 2.61 µM) | 1.56 (≈ 5.21 µM) | 0.1 (≈ 0.334 µM) | 0.78 (≈ 2.61 µM) | 0.78 (≈ 2.61 µM) | 1.56 (≈ 5.21 µM) | 0.39 (≈ 1.3 µM) | 3.13 (≈ 10.5 µM) | 3.13 (≈ 10.5 µM) | 0.78 (≈ 2.61 µM) | 0.78 (≈ 2.61 µM) | 0.78 (≈ 2.61 µM) | 0.2 (≈ 0.668 µM) | 0.39 (≈ 1.3 µM) | 3.13 (≈ 10.5 µM) | 3.13 (≈ 10.5 µM) | 0.2 (≈ 0.668 µM) | MIC ([2]; 18 hours, read-out: MIC): 0.78 µg/mL (≈ 2.61 µM); MIC ([6]; Serratia marcescens, IAM1184, 18 h, read-out: MIC): 0.39 µg/mL (≈ 1.3 µM); MIC [9]: 6.25 µg/mL (≈ 20.9 µM); MIC ([16]; Proteus vulgaris, GN7919, Proteus vulgaris GN 7919, read-out: MIC): 0.39 µg/mL (≈ 1.3 µM); MIC ([20]; Morganella morganii, GN5307, Proteus morganii GN 5307, read-out: MIC): 0.78 µg/mL (≈ 2.61 µM); MIC [26]: 0.39 µg/mL (≈ 1.3 µM)
C[C@@H](O)[C@H]1C(=O)N2C(C(=O)[O-])=C(SCc3cs[n+](C)n3)[C@H](C)[C@H]12 [Amorphous Compd. (14), (1R,5S,6S)-2-[(2-methyl-1,2,3-thiadiazolium-4-yl)methyl]thio-6-[(R)-1-hydroxyethyl]-1-methyl-carbapenem-3-carboxylate] | 0.05 (≈ 0.141 µM) | 0.39 (≈ 1.1 µM) | 1.56 (≈ 4.39 µM) | 0.39 (≈ 1.1 µM) | 1.56 (≈ 4.39 µM) | 0.025 (≈ 0.0703 µM) | 0.39 (≈ 1.1 µM) | 0.39 (≈ 1.1 µM) | 1.56 (≈ 4.39 µM) | 0.39 (≈ 1.1 µM) | 0.39 (≈ 1.1 µM) | 6.25 (≈ 17.6 µM) | 3.13 (≈ 8.81 µM) | 0.78 (≈ 2.19 µM) | 0.78 (≈ 2.19 µM) | 0.2 (≈ 0.563 µM) | 0.39 (≈ 1.1 µM) | 6.25 (≈ 17.6 µM) | 3.13 (≈ 8.81 µM) | 0.1 (≈ 0.281 µM) | MIC ([2]; ENTERITIDIS, 18 h): 1.56 µg/mL (≈ 4.39 µM); MIC ([6]; 18 hours): 0.2 µg/mL (≈ 0.563 µM); MIC ([9]; Proteus mirabilis IFO3849, MH agar, 37°C, 18 hours, read-out: MIC): 6.25 µg/mL (≈ 17.6 µM); MIC ([16]; Proteus vulgaris GN 7919): 6.25 µg/mL (≈ 17.6 µM); MIC ([20]; Proteus morganii GN 5307): 3.13 µg/mL (≈ 8.81 µM); MIC [26]: 0.1 µg/mL (≈ 0.281 µM)
